{"source": "PubChem BioAssay AID2060498", "about": "(Molecular Pharmacology Branch, DTP, NCI, 2025);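 further: spheroids exposed to compounds for 7 days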;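 on viability, T/C: 100% = DMSO vehicle control viability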", "tested_on": "171881-019-R-J1-PDC tumor spheroids, viability", "assay": "Anticancer human tumor 171881-019-R-J1-PDC patient-derived invasive breast carcinoma cell line growth inhibition [GQUAD]", "details": "spheroids with HUVEC and MSC; for IC50: curve of first compound; for viability, T/C: stronger effect = lower value", "description": "DNA G-quadruplex Stabilizer Agents in Combinations in Complex Spheroids\nA high-throughput screen of multi-cell type tumor spheroids was designed to identify active combinations of DNA G-quadruplex stabilizer agents and targeted small molecules. Complex spheroids include a stromal component modeled by human endothelial cells (HUVEC) and fibroblasts modeled by human mesenchymal stem cells (MSCs). The concentration ranges selected for each drug and investigational agent were based upon clinically achievable concentrations if the clinical Cmax of the agent was known.\nCompounds. The drugs and investigational agents: pidnarulex (CX-5461; NSC782164), APTO-253 (NSC789042), BRACO-19 (NSC847499), peposertib (NSC802822), ceralasertib (NSC780249), elimusertib (NSC800525), camonsertib (NSC841442), AZD-1390 (NSC803789), olaparib (NSC753686), talazoparib (NSC767125), ART-558 (NSC835418), sotorasib (NSC818433), MRTX-1133 (NSC836407), SN-38 (NSC673596), topotecan (NSC609699), etoposide (NSC141540), doxorubicin (NSC123127), gemcitabine (NSC613327), 5-fluorouracil (NSC19893), paclitaxel (NSC125973), vemurafenib (NSC761431), panobinostat (NSC761190), R-306465 (JNJ-16241199; NSC773264), adavosertib (NSC754352), TP-3654 (NSC805149), carboplatin (NSC241240), KSQ-4279 (NSC840948), and staurosporine (NSC755774) were obtained from the National Cancer Institute (NCI) Developmental Therapeutics Program Chemical Repository (34). The FDA-approved anticancer drug set is available from the NCI Developmental Therapeutics Program. […] The stock solutions were prepared in dimethyl sulfoxide (DMSO, Sigma-Aldrich, St. Louis, MO, cat. D2650) at 800-fold the tested concentration and stored at -70 degrees C prior to their use. All drugs and investigational agents were tested over a range starting from a high concentration at or near the clinical Cmax and decreasing in half-log increments. If the clinical Cmax for an agent had not been determined, the highest concentration tested was 10 microM.\n2.3 Cell Culture. All cells were maintained in an incubator at 37 degrees C and 5% CO2 with 95% humidity. The PDC lines were cultured according to standard operating procedures established by the NCI PDMR. All PDCs were thawed and cultured in Matrigel-coated flasks prepared with a working solution of 1X Ham's F-12 nutrient mix, without supplementation (Invitrogen, cat. 11765054), 100 U/mL penicillin-streptomycin (Invitrogen, cat. 15140122), and 2.5% Matrigel (Corning Inc., cat. 354248) for the first three passages. The 857933-349-R-J2-PDC line was cultured in 6C/Colon 1B media, which includes advanced DMEM/F-12 (Thermo Fisher Scientific, cat. 12634028), 10 mM HEPES (Thermo Fisher Scientific, cat. 15630080), 1X GlutaMAX supplement (Thermo Fisher Scientific, cat. 35050061), 0.1 mg/mL primocin (InvivoGen, cat. ant-pm-2), 10% defined fetal bovine serum, heat inactivated (HyClone Laboratories Inc., cat. SH30070.03HI), 50% L-WRN conditioned media (ATCC, cat. CRL-3276), 1.25 mM N-Acetyl-L-cysteine (Sigma-Aldrich, cat. A9165), 10 mM nicotinamide (Sigma-Aldrich, cat. N0636), 1X B-27 supplement (Thermo Fisher Scientific, cat. 17504044), 1X N-2 supplement (Thermo Fisher Scientific, cat. 17502048), 10 microM Y-27632 dihydrochloride (Tocris Bioscience, cat. 1254), and 50 ng/mL human EGF recombinant protein (Thermo Fisher Scientific, cat. PHG0311). The 485176-168-R4-J1-PDC line was cultured in Panc media, which includes all 6C/Colon 1B media components plus 100 ng/mL human FGF-10 (Thermo Fisher Scientific, cat. 100-26), 500 nM SB-431542 (Selleckchem, cat. S1067), and gastrin (Tocris, cat. 3006).\n[…]", "data": [{"smiles": "O=C(c1cc(Cc2n[nH]c(=O)c3ccccc23)ccc1F)N1CCN(C(=O)C2CC2)CC1", "note": "+ Cc1[nH]c2ccc(F)cc2c1-c1nc2c3cccnc3c3ncccc3c2[nH]1", "values": [{"measurement": "IC50", "setting": "second compound 0.0316 µM", "value": "> 10", "unit": "µM"}, {"measurement": "IC50", "setting": "second compound 0.1 µM", "value": "> 10", "unit": "µM"}, {"measurement": "IC50", "setting": "second compound 0.316 µM", "value": "> 10", "unit": "µM"}, {"measurement": "IC50", "setting": "second compound 1 µM", "value": "> 10", "unit": "µM"}, {"measurement": "IC50", "setting": "second compound 3.16 µM", "value": "< 0.0316", "unit": "µM"}, {"measurement": "IC50", "setting": "second compound 10 µM", "value": "> 10", "unit": "µM"}, {"measurement": "viability, T/C", "setting": "second compound 0.0316 µM, first compound 0.0316 µM", "value": 95.7, "unit": "%"}, {"measurement": "viability, T/C", "setting": "second compound 0.0316 µM, first compound 0.1 µM", "value": 105, "unit": "%"}, {"measurement": "viability, T/C", "setting": "second compound 0.0316 µM, first compound 0.316 µM", "value": 102, "unit": "%"}, {"measurement": "viability, T/C", "setting": "second compound 0.0316 µM, first compound 1 µM", "value": 106, "unit": "%"}, {"measurement": "viability, T/C", "setting": "second compound 0.0316 µM, first compound 3.16 µM", "value": 99.3, "unit": "%"}, {"measurement": "viability, T/C", "setting": "second compound 0.0316 µM, first compound 10 µM", "value": 89.3, "unit": "%"}, {"measurement": "viability, T/C", "setting": "second compound 0.1 µM, first compound 0.0316 µM", "value": 102, "unit": "%"}, {"measurement": "viability, T/C", "setting": "second compound 0.1 µM, first compound 0.1 µM", "value": 103, "unit": "%"}, {"measurement": "viability, T/C", "setting": "second compound 0.1 µM, first compound 0.316 µM", "value": 96.7, "unit": "%"}, {"measurement": "viability, T/C", "setting": "second compound 0.1 µM, first compound 1 µM", "value": 95.7, "unit": "%"}, {"measurement": "viability, T/C", "setting": "second compound 0.1 µM, first compound 3.16 µM", "value": 89.1, "unit": "%"}, {"measurement": "viability, T/C", "setting": "second compound 0.1 µM, first compound 10 µM", "value": 80.3, "unit": "%"}, {"measurement": "viability, T/C", "setting": "second compound 0.316 µM, first compound 0.0316 µM", "value": 91.7, "unit": "%"}, {"measurement": "viability, T/C", "setting": "second compound 0.316 µM, first compound 0.1 µM", "value": 107, "unit": "%"}, {"measurement": "viability, T/C", "setting": "second compound 0.316 µM, first compound 0.316 µM", "value": 107, "unit": "%"}, {"measurement": "viability, T/C", "setting": "second compound 0.316 µM, first compound 1 µM", "value": 96.2, "unit": "%"}, {"measurement": "viability, T/C", "setting": "second compound 0.316 µM, first compound 3.16 µM", "value": 91.6, "unit": "%"}, {"measurement": "viability, T/C", "setting": "second compound 0.316 µM, first compound 10 µM", "value": 81.9, "unit": "%"}, {"measurement": "viability, T/C", "setting": "second compound 1 µM, first compound 0.0316 µM", "value": 86.5, "unit": "%"}, {"measurement": "viability, T/C", "setting": "second compound 1 µM, first compound 0.1 µM", "value": 75.6, "unit": "%"}, {"measurement": "viability, T/C", "setting": "second compound 1 µM, first compound 0.316 µM", "value": 91.3, "unit": "%"}, {"measurement": "viability, T/C", "setting": "second compound 1 µM, first compound 1 µM", "value": 80.6, "unit": "%"}, {"measurement": "viability, T/C", "setting": "second compound 1 µM, first compound 3.16 µM", "value": 87.2, "unit": "%"}, {"measurement": "viability, T/C", "setting": "second compound 1 µM, first compound 10 µM", "value": 78.4, "unit": "%"}, {"measurement": "viability, T/C", "setting": "second compound 3.16 µM, first compound 0.0316 µM", "value": 27.8, "unit": "%"}, {"measurement": "viability, T/C", "setting": "second compound 3.16 µM, first compound 0.1 µM", "value": 23.5, "unit": "%"}, {"measurement": "viability, T/C", "setting": "second compound 3.16 µM, first compound 0.316 µM", "value": 24.4, "unit": "%"}, {"measurement": "viability, T/C", "setting": "second compound 3.16 µM, first compound 1 µM", "value": 31.8, "unit": "%"}, {"measurement": "viability, T/C", "setting": "second compound 3.16 µM, first compound 3.16 µM", "value": 28.9, "unit": "%"}, {"measurement": "viability, T/C", "setting": "second compound 3.16 µM, first compound 10 µM", "value": 25.7, "unit": "%"}, {"measurement": "viability, T/C", "setting": "second compound 10 µM, first compound 0.0316 µM", "value": 55.1, "unit": "%"}, {"measurement": "viability, T/C", "setting": "second compound 10 µM, first compound 0.1 µM", "value": 51.2, "unit": "%"}, {"measurement": "viability, T/C", "setting": "second compound 10 µM, first compound 0.316 µM", "value": 57.2, "unit": "%"}, {"measurement": "viability, T/C", "setting": "second compound 10 µM, first compound 1 µM", "value": 60.7, "unit": "%"}, {"measurement": "viability, T/C", "setting": "second compound 10 µM, first compound 3.16 µM", "value": 60.5, "unit": "%"}, {"measurement": "viability, T/C", "setting": "second compound 10 µM, first compound 10 µM", "value": 49.5, "unit": "%"}]}]}
